Values quoted from earlier work as cited in patent US20210000980A1, “METHOD AND COMPOSITION FOR THE DETECTION OF ARTHROPODS” (ARKE' S.r.l., priority 2018, published 2021).

Tested on: lice
Conditions: 10% formic acid solution in water

## O=CO [formic acid]
  lice removed: ≤ 94%
